Source: patent US7598245B2 (Vertex Pharmaceuticals Incorporated, priority 2003, dated 2009)
Where two headings read alike, the source gives them in different places.

Tests used:
FLT-3 = biological target: T1, FLT-3 (Homo sapiens, UniProt P36888); test: Inhibition of FLT-3, radiometric filter-binding assay; format: biochemical; settings: 90 μM ATP, pE4Y substrate
T1 construct: 0.02% BSA and 3 nM FLT-3
T1 sequence (P36888 27-993): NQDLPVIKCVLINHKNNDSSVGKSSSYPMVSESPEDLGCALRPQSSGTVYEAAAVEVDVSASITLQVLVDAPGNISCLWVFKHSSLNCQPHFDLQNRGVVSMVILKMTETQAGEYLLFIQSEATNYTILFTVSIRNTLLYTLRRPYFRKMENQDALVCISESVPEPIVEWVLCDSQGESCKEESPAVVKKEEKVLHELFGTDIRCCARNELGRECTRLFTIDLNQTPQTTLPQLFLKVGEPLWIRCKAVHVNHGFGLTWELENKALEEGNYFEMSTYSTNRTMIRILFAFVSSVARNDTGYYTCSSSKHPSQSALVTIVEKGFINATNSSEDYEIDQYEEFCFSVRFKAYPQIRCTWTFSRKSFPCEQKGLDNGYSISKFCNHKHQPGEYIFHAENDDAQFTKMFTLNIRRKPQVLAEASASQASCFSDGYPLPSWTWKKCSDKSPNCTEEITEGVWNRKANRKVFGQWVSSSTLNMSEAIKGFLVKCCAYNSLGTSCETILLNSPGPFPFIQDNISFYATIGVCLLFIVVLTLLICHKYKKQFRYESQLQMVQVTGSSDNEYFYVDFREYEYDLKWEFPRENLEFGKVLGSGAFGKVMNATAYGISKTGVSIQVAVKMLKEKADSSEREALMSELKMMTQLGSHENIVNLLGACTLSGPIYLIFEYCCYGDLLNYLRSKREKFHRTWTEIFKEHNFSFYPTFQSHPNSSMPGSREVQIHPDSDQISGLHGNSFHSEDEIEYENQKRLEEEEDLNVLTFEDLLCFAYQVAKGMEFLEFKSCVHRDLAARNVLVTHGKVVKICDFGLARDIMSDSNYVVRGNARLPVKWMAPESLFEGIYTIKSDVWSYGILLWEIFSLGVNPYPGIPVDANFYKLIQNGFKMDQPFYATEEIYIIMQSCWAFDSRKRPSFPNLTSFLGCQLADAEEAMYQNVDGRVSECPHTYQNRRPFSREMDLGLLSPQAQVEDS
Protocol: Compounds were screened for their ability to inhibit FLT-3 activity using a radiometric filter-binding assay. This assay monitors the ^33P incorporation into a substrate poly(Glu, Tyr) 4:1 (pE4Y). Reactions were carried out in a solution containing 100 mM HEPES (pH 7.5), 10 mM MgCl2, 25 mM NaCl, 1 mM DTT, 0.01% BSA and 2.5% DMSO. Final substrate concentrations in the assay were 90 μM ATP and 0.5 mg/mL pE4Y (both from Sigma Chemicals, St Louis, Mo.). The final concentration of compounds is generally between 0.01 and 5 μM. Typically, a 12-point titration was conducted by preparing serial dilutions from 10 mM DMSO stock of test compound. Reactions were carried out at room temperature.
Two assay solutions were prepared. Solution 1 contains 100 mM HEPES (pH 7.5), 10 mM MgCl2, 25 mM NaCl, 1 mg/ml pE4Y and 180 μM ATP (containing 0.3 μCi of [γ-^33P]ATP for each reaction). Solution 2 contains 100 mM HEPES (pH 7.5), 10 mM MgCl2, 25 mM NaCl, 2 mM DTT, 0.02% BSA and 3 nM FLT-3. The assay was run on a 96 well plate by mixing 50 μL each of Solution1 and 2.5 mL of the test compounds. The reaction was initiated with Solution2. After incubation for 20 minutes at room temperature, the reaction was stopped with 50 μL of 20% TCA containing 0.4 mM of ATP. All of the reaction volume was then transferred to a filter plate and washed with 5% TCA by a Harvester9600 from TOMTEC (Hamden, Conn.). The amount of ^33P incorporation into pE4y was analyzed by a Packard TopCount Microplate Scintillation Counter (Meriden, Conn.). The data was fitted using Prism software to get an IC50 or Ki.

GSK-3β (AA 1-420) = GSK-3β (AA 1-420) (Homo sapiens, UniProt P49841); test: Inhibition of GSK-3, coupled enzyme system; format: biochemical; settings: 20 μM ATP, 30° C.
Chain of GSK-3β (AA 1-420) (P49841 whole entry, the tested form may be a part): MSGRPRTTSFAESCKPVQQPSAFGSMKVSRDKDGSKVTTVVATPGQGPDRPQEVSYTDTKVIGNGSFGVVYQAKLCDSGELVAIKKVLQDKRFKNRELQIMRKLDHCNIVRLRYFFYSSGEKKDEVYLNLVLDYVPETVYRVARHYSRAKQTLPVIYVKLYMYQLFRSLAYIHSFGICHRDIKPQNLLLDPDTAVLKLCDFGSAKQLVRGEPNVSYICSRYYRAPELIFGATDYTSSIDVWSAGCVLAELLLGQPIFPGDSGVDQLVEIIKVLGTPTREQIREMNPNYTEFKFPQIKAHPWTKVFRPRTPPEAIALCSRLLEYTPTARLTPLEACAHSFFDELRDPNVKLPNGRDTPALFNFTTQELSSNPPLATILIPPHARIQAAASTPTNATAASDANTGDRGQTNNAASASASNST
Protocol: Compounds are screened for their ability to inhibit GSK-3β (AA 1-420) activity using a standard coupled enzyme system [Fox et al. Protein Sci. 1998, 7, 2249]. Reactions are carried out in a solution containing 100 mM HEPES (pH 7.5), 10 mM MgCl2, 25 mM NaCl, 300 μM NADH, 1 mM DTT and 1.5% DMSO. Final substrate concentrations in the assay are 20 μM ATP (Sigma Chemicals, St Louis, Mo.) and 300 μM peptide (American Peptide, Sunnyvale, Calif.). Reactions are carried out at 30° C. and 20 nM GSK-3β. Final concentrations of the components of the coupled enzyme system are 2.5 mM phosphoenolpyruvate, 300 μM NADH, 30 μg/ml pyruvate kinase and 10 μg/ml lactate dehydrogenase.
An assay stock buffer solution is prepared containing all of the reagents listed above with the exception of ATP and the test compound of interest. The assay stock buffer solution (175 μl) is incubated in a 96 well plate with 5 μl of the test compound of interest at final concentrations spanning 0.002 μM to 30 μM at 30° C. for 10 min. Typically, a 12 point titration is conducted by preparing serial dilutions (from 10 mM compound stocks) with DMSO of the test compounds in daughter plates. The reaction is initiated by the addition of 20 μl of ATP (final concentration 20 μM). Rates of reaction are obtained using a Molecular Devices Spectramax plate reader (Sunnyvale, Calif.) over 10 min at 30° C. The Ki values are determined from the rate data as a function of inhibitor concentration.

[1] = given as IC50 or Ki, read-out: IC50 or Ki values (FLT-3)

Ki (FLT-3; [1]) [nM]	Ki (FLT-3; read-out: Ki values (FLT-3)) [nM]	Ki (GSK-3β (AA 1-420)) [nM]	Structure (SMILES)
< 100	1 to 30	> 1000	COc1cc(Nc2ncn(-c3ccccc3)n2)cc(OC)c1OC [Compound I-42]
< 100	1 to 30	500 to 1000	COc1cc(Nc2ncn(-c3ccc(C#N)cc3)n2)cc(OC)c1OC [Compound I-43]
< 100	1 to 30	> 1000	c1ccc(-n2cnc(Nc3ccc4c(c3)OCCO4)n2)cc1 [Compound I-44]
< 100	1 to 30	> 1000	CCOc1cccc(Nc2ncn(-c3ccccc3)n2)c1 [Compound I-45]
< 100	1 to 30	> 1000	CC(C)Oc1cccc(Nc2ncn(-c3ccccc3)n2)c1 [Compound I-46]
< 100	30 to 200	> 1000	CCOc1ccc(Nc2ncn(-c3ccccc3)n2)cc1 [Compound I-47]
	< 60	500 to 1000	c1ccc(Nc2ncn(-c3ccnc(N4CCCCC4)c3)n2)cc1 [Compound I-49, phenyl-[1-(3,4,5,6-tetrahydro-2H-[1,2′]bipyridinyl-4′-yl)-1H-[1,2,4]triazol-3-yl]-amine]
	1 to 30	500 to 1000	c1ccc(Nc2ncn(-c3ccnc(NC4CCCCC4)c3)n2)cc1 [Compound I-50]
	< 60	< 500	CN(CCO)c1cc(-n2cnc(Nc3ccccc3)n2)ccn1 [Compound I-51]
		500 to 1000	c1ccc(Nc2ncn(-c3ccnc(N4CCCCCCC4)c3)n2)cc1 [Compound I-52]
		> 1000	CN(C)CCCN(C)c1cc(-n2cnc(Nc3ccccc3)n2)ccn1 [Compound I-53]
		< 500	CCN(CCO)c1cc(-n2cnc(Nc3ccccc3)n2)ccn1 [Compound I-54]
	1 to 30	> 1000	CN(Cc1ccccc1)c1cc(-n2cnc(Nc3ccccc3)n2)ccn1 [Compound I-55]
	1 to 30	< 500	CC1CCCN1c1cc(-n2cnc(Nc3ccccc3)n2)ccn1 (centres unmarked) [Compound I-56]
	1 to 30	< 500	CN(Cc1cccnc1)c1cc(-n2cnc(Nc3ccccc3)n2)ccn1 [Compound I-57]
	1 to 30	< 500	CCCN(CCO)c1cc(-n2cnc(Nc3ccccc3)n2)ccn1 [Compound I-58]
	1 to 30	< 500	COCCN(C)c1cc(-n2cnc(Nc3ccccc3)n2)ccn1 [Compound I-59, (2-methoxy-ethyl)-methyl-[4-(3-phenylamino-[1,2,4]triazol-1-yl)-pyridin-2-yl]-amine]
	30 to 200	> 1000	CCN(CC)CCNc1cc(-n2cnc(Nc3ccccc3)n2)ccn1 [Compound I-60]
		> 1000	CN1C(C)(C)CC(Nc2cc(-n3cnc(Nc4ccccc4)n3)ccn2)CC1(C)C [Compound I-61]
	1 to 30	< 500	CC(C)CCN(C)c1cc(-n2cnc(Nc3ccccc3)n2)ccn1 [Compound I-62, methyl-(3-methyl-butyl)-[4-(3-phenylamino-[1,2,4]triazol-1-yl)-pyridin-2-yl]-amine]

Ki (FLT-3; [1]) [nM]	Ki (FLT-3; read-out: Ki values (FLT-3)) [nM]	Ki (GSK-3β (AA 1-420)) [nM]	Structure (SMILES)
	> 200	> 1000	O=c1[nH]c2ccccc2n1C1CCN(c2cc(-n3cnc(Nc4ccccc4)n3)ccn2)CC1 [Compound I-63]
	> 200	> 1000	O=C(C1CCCO1)N1CCN(c2cc(-n3cnc(Nc4ccccc4)n3)ccn2)CC1 (centres unmarked) [Compound I-64]
		500 to 1000	OC[C@H]1CCCN(c2cc(-n3cnc(Nc4ccccc4)n3)ccn2)C1 [Compound I-65]
	< 60	> 1000	CC(=O)N1CCCN(c2cc(-n3cnc(Nc4ccccc4)n3)ccn2)CC1 [Compound I-66]
	30 to 200	> 1000	CCC(=O)N1CCCN(c2cc(-n3cnc(Nc4ccccc4)n3)ccn2)CC1 [Compound I-67]
	30 to 200	> 1000	CCCC(=O)N1CCCN(c2cc(-n3cnc(Nc4ccccc4)n3)ccn2)CC1 [Compound I-68]
	30 to 200	> 1000	CC(C)C(=O)N1CCCN(c2cc(-n3cnc(Nc4ccccc4)n3)ccn2)CC1 [Compound I-69]
		> 1000	CC(C)CC(=O)N1CCCN(c2cc(-n3cnc(Nc4ccccc4)n3)ccn2)CC1 [Compound I-70]
	30 to 200	> 1000	COCC(=O)N1CCCN(c2cc(-n3cnc(Nc4ccccc4)n3)ccn2)CC1 [Compound I-71]
	< 60	> 1000	N#CCC(=O)N1CCCN(c2cc(-n3cnc(Nc4ccccc4)n3)ccn2)CC1 [Compound I-72]
	< 60	500 to 1000	c1ccc(Nc2ncn(-c3ccnc(N4CCCCCC4)c3)n2)cc1 [Compound I-73]
	< 60	> 1000	CC(=O)N1[C@H](C)CN(c2cc(-n3cnc(Nc4ccccc4)n3)ccn2)C[C@@H]1C [Compound I-74]
	30 to 200	> 1000	CCOC(=O)c1ccc(Nc2ncn(-c3ccnc(N4C[C@@H](C)N(C(C)=O)[C@@H](C)C4)c3)n2)cc1 [Compound I-75]
	30 to 200	> 1000	CCOC(=O)c1ccc(Nc2ncn(-c3ccnc(N4CCCN(C(C)=O)CC4)c3)n2)cc1 [Compound I-76]
	< 60	> 1000	CC(=O)N1[C@H](C)CN(c2cc(-n3cnc(Nc4ccc(NC(=O)N(C)C)cc4)n3)ccn2)C[C@@H]1C [Compound I-77, 3-(4-{1-[2-(4-Acetyl-3,5-dimethyl-piperazin-1-yl)-pyridin-4-yl]-1H-[1,2,4]triazol-3-ylamino}-phenyl)-1,1-dimethyl-urea]
	< 60	> 1000	COC(=O)Nc1ccc(Nc2ncn(-c3ccnc(N4C[C@@H](C)N(C(C)=O)[C@@H](C)C4)c3)n2)cc1 [Compound I-78]
	< 60	> 1000	CC(=O)N1[C@H](C)CN(c2cc(-n3cnc(Nc4ccc(NC(=O)C(F)(F)F)cc4)n3)ccn2)C[C@@H]1C [Compound I-79]
	< 60	> 1000	CC(=O)N1[C@H](C)CN(c2cc(-n3cnc(Nc4ccc(NC(=O)c5cccs5)cc4)n3)ccn2)C[C@@H]1C [Compound I-80]
		< 500	O=C(Nc1cc(-n2cnc(Nc3ccccc3)n2)ccn1)C1CCCCC1 [Compound I-93]
